# In ChEMBL document CHEMBL1153524, “2009 Claude S. Hudson Award in Carbohydrate Chemistry. Carbohydrates: a frontier in medicinal chemistry” (2009):
# Tested on: Plasmodium berghei
# Assay: Antiplasmodial activity as survival against Plasmodium berghei ANKA infected mice (Mus musculus)
# Format: functional
smiles,measurement,value
NCCOP(=O)(O)OC[C@H]1O[C@H](O[C@@H]2[C@@H](OC[C@H]3O[C@H](O[C@H]4[C@H](O)[C@@H](N)[C@@H](O[C@@H]5[C@@H](O)[C@H](O)[C@@H](O)[C@H]6OP(=O)(O)O[C@H]65)O[C@@H]4CO)[C@@H](O)[C@@H](O)[C@@H]3O)O[C@H](CO)[C@@H](O)[C@@H]2O)[C@@H](O[C@H]2O[C@H](CO)[C@@H](O)[C@H](O)[C@@H]2O)[C@@H](O)[C@@H]1O,Survival,75%
